Tests used:
Settings in all cases: 48 h
SEM cells [1] = assay: cell viability relative to DMSO control; higher = less cytotoxic
Outline: (§1)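 Viability was expressed as a per-plate percentage of DMSO wells, with cell-free wells as background. Leukemia cells (NOMO1 or SEM at 500 cells/well, P12-Ichikawa at 1000 cells/well) were adapted for at least four passages in each medium and seeded in 1536-well plates (5 μl). Library compounds in DMSO were pin-dosed over an 11-point threefold series from 47 μM to 0.79 nM, and CellTiter-Glo One luminescence was read after 48 h at 37°C.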

NOMO1 [2] = assay: as above
Outline: as §1

P12-Ichikawa [3] = assay: as above
Outline: as §1

SEM cells [4] = assay: AUC of viability dose-response curve (% viability x log10 dose units); higher = less sensitive
Outline: (§2)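 Leukemia cells adapted to each medium were seeded in 1536-well plates (500 or 1000 cells/well). They were dosed with library compounds in DMSO at 11 threefold doses, 47 μM to 0.79 nM, for 48 h at 37°C. CellTiter-Glo One luminescence was normalised per plate to DMSO and cell-free wells. Area under the curve was integrated by trapezoidal rule over log10 doses on a four-parameter log-logistic fit; curves exceeding full viability were scaled and curves failing quality control removed.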

NOMO1 [5] = assay: as above
Outline: as §2

P12-Ichikawa [6] = assay: as above
Outline: as §2

Cn1c(Nc2ccc(C(F)(F)F)cc2)nc2cc(Oc3ccnc(-c4nc(C(F)(F)F)c[nH]4)c3)ccc21
cell viability [%]
Settings	NOMO1 [2]	P12-Ichikawa [3]	SEM cells [1]
HPLM + 10% dialyzed FBS, 0.000781 µM	125	120	97.1
HPLM + 10% dialyzed FBS, 0.00234 µM	125	112	114
HPLM + 10% dialyzed FBS, 0.00702 µM	120	119	116
HPLM + 10% dialyzed FBS, 0.0211 µM	125	93	96.8
HPLM + 10% dialyzed FBS, 0.0632 µM	144	133	127
HPLM + 10% dialyzed FBS, 0.19 µM	145	125	115
HPLM + 10% dialyzed FBS, 0.569 µM	140	126	109
HPLM + 10% dialyzed FBS, 1.71 µM	129	123	96.2
HPLM + 10% dialyzed FBS, 5.12 µM	114	111	59.6
HPLM + 10% dialyzed FBS, 15.4 µM	100	81.8	55.1
HPLM + 10% dialyzed FBS, 46.1 µM	45.7	27.1	24.8
RPMI 5 mM glucose + 10% FBS, 0.000781 µM	124	–	111
RPMI 5 mM glucose + 10% FBS, 0.00234 µM	123	–	109
RPMI 5 mM glucose + 10% FBS, 0.00702 µM	118	–	124
RPMI 5 mM glucose + 10% FBS, 0.0211 µM	134	–	94.8
RPMI 5 mM glucose + 10% FBS, 0.0632 µM	130	–	136
RPMI 5 mM glucose + 10% FBS, 0.19 µM	141	–	117
RPMI 5 mM glucose + 10% FBS, 0.569 µM	124	–	122
RPMI 5 mM glucose + 10% FBS, 1.71 µM	149	–	98.2
RPMI 5 mM glucose + 10% FBS, 5.12 µM	122	–	53.4
RPMI 5 mM glucose + 10% FBS, 15.4 µM	119	–	44.2
RPMI 5 mM glucose + 10% FBS, 46.1 µM	29.5	–	12.7
RPMI 5 mM glucose + 10% dialyzed FBS, 0.000781 µM	121	–	108
RPMI 5 mM glucose + 10% dialyzed FBS, 0.00234 µM	129	–	118
RPMI 5 mM glucose + 10% dialyzed FBS, 0.00702 µM	121	–	134
RPMI 5 mM glucose + 10% dialyzed FBS, 0.0211 µM	127	–	102
RPMI 5 mM glucose + 10% dialyzed FBS, 0.0632 µM	140	–	128
RPMI 5 mM glucose + 10% dialyzed FBS, 0.19 µM	130	–	130
RPMI 5 mM glucose + 10% dialyzed FBS, 0.569 µM	125	–	116
RPMI 5 mM glucose + 10% dialyzed FBS, 1.71 µM	125	–	112
RPMI 5 mM glucose + 10% dialyzed FBS, 5.12 µM	104	–	55.3
RPMI 5 mM glucose + 10% dialyzed FBS, 15.4 µM	106	–	48.6
RPMI 5 mM glucose + 10% dialyzed FBS, 46.1 µM	26.8	–	18.1

AUC of viability dose-response curve
Settings	NOMO1 [5]	P12-Ichikawa [6]	SEM cells [4]
HPLM + 10% dialyzed FBS	444	441	402
RPMI 5 mM glucose + 10% FBS	454	425	389
RPMI 5 mM glucose + 10% dialyzed FBS	446	431	395

CC(=O)N1CCN(c2ccc(OC[C@H]3CO[C@](Cn4ccnc4)(c4ccc(Cl)cc4Cl)O3)cc2)CC1
cell viability [%]
Settings	NOMO1 [2]	P12-Ichikawa [3]	SEM cells [1]
HPLM + 10% dialyzed FBS, 0.000781 µM	126	118	98.3
HPLM + 10% dialyzed FBS, 0.00234 µM	120	120	97.8
HPLM + 10% dialyzed FBS, 0.00702 µM	123	118	104
HPLM + 10% dialyzed FBS, 0.0211 µM	118	112	95.2
HPLM + 10% dialyzed FBS, 0.0632 µM	117	108	107
HPLM + 10% dialyzed FBS, 0.19 µM	102	121	26.4
HPLM + 10% dialyzed FBS, 0.569 µM	129	114	90.9
HPLM + 10% dialyzed FBS, 1.71 µM	103	105	92.8
HPLM + 10% dialyzed FBS, 5.12 µM	98.8	104	21.5
HPLM + 10% dialyzed FBS, 15.4 µM	96.3	94	87.1
HPLM + 10% dialyzed FBS, 46.1 µM	80.4	63.2	86.4
RPMI 5 mM glucose + 10% FBS, 0.000781 µM	113	–	124
RPMI 5 mM glucose + 10% FBS, 0.00234 µM	111	–	136
RPMI 5 mM glucose + 10% FBS, 0.00702 µM	121	–	121
RPMI 5 mM glucose + 10% FBS, 0.0211 µM	114	–	125
RPMI 5 mM glucose + 10% FBS, 0.0632 µM	114	–	134
RPMI 5 mM glucose + 10% FBS, 0.19 µM	107	–	28
RPMI 5 mM glucose + 10% FBS, 0.569 µM	119	–	113
RPMI 5 mM glucose + 10% FBS, 1.71 µM	106	–	104
RPMI 5 mM glucose + 10% FBS, 5.12 µM	97.9	–	14.1
RPMI 5 mM glucose + 10% FBS, 15.4 µM	98.2	–	90.5
RPMI 5 mM glucose + 10% FBS, 46.1 µM	93.6	–	48.5
RPMI 5 mM glucose + 10% dialyzed FBS, 0.000781 µM	111	109	–
RPMI 5 mM glucose + 10% dialyzed FBS, 0.00234 µM	100	107	–
RPMI 5 mM glucose + 10% dialyzed FBS, 0.00702 µM	120	110	–
RPMI 5 mM glucose + 10% dialyzed FBS, 0.0211 µM	127	107	–
RPMI 5 mM glucose + 10% dialyzed FBS, 0.0632 µM	127	113	–
RPMI 5 mM glucose + 10% dialyzed FBS, 0.19 µM	113	106	–
RPMI 5 mM glucose + 10% dialyzed FBS, 0.569 µM	103	101	–
RPMI 5 mM glucose + 10% dialyzed FBS, 1.71 µM	113	101	–
RPMI 5 mM glucose + 10% dialyzed FBS, 5.12 µM	126	94	–
RPMI 5 mM glucose + 10% dialyzed FBS, 15.4 µM	110	96.7	–
RPMI 5 mM glucose + 10% dialyzed FBS, 46.1 µM	89.3	68.2	–

AUC of viability dose-response curve
Settings	NOMO1 [5]	P12-Ichikawa [6]	SEM cells [4]
HPLM + 10% dialyzed FBS	437	449	391
RPMI 5 mM glucose + 10% FBS	456	456	340
RPMI 5 mM glucose + 10% dialyzed FBS	470	452	336

From the supplement of paper PMC11451515
